According to patent US12648892B2, “Emergency eye wash” (Lebrun Labs LLC, priority 2024, dated 2026):
“And” between values parts separate entries of the source, which are not always exact repeats. Identical values can stand only once. “Also recorded” adds a separate entry of the source. Like-named read-outs stand apart in the source and are kept apart here.

Key:
[1] = tested on: cornea; settings: cited from earlier work
[2] = pH measurement of solutions; assay type: physicochemical; settings: 32% NaOCl
Method: In another study, how quickly washing must be initiated was studied. AA wash was formulated as described above and used just after injury, 10 minutes after injury or 2 hours after injury. […] However this solution took 3.5 hours of rapid mixing to fully go into solution and the another 1.5 hours to adjust the pH which initially feel below to a pH of 3.25.
(§1) Prior to each experiment (<1 h), NaOCl (CASRN 7681-52-9, Sigma-Aldrich, St. Louis, MO) was freshly diluted in sterile deionized water, mixed by five tube inversions prior to each application, and applied directly to the eyes (corneas) by transferring 100 μL with a micropipette into the dosing ring (FIG. 12A); the corneas were then exposed to this solution for exactly 1 min. Immediately after exposure, corneas were rinsed for exactly 30 s by forcefully dispensing 20 mL saline (9 g/L NaCl) from an eye rinsing syringe (part of the IVD kit). The pH of the 32% NaOCl was measured using a Fisherbrand™ Accumet™ AB150 pH benchtop meter (Fisher Scientific, Waltham, MA).

[3] = tested on: corneal stromal cell (keratocytes) nuclei; test: NaOCl titration study, TUNEL positive nuclei counts; assay type: cell-based; settings: New Zealand White, rabbit, 1 min, 8 %
Method: (§2) Whole New Zealand White rabbit eyes were used Prior to exposure a 10-mm internal dosing ring (FIG. 12A, part of the IVD kit) was placed over the central cornea that was then exposed to NaOCl.
as §1, with “Immediately after exposure, corneas were rinsed for exactly 30 s by forcefully dispensing 20 mL saline (9 g/L NaCl) from an eye rinsing syringe (part of the IVD kit).” left out, “MA). […]” for “MA).”
Stained sections were viewed using a Leica DMRE fluorescence microscope (Leica Microsystems Inc., Buffalo Grove, IL). […] An L5 Fluorescence Filter Cube (Leica Microsystems Inc., Buffalo Grove, IL) was used for TUNEL and DoD imaging. Images were processed and analyzed using ImageJ software, version 1.54 (Schneider et al., 2012). […] Three corneal cryosections, each approximately 2.3 mm long and 0.5-0.9 mm wide (depending on swelling), were measured for each eye. To count TUNEL-positive nuclei, the number of discrete TUNEL-positive nuclei in the stroma that meet the size parameters associated with a keratocyte nucleus were recorded for each section using ImageJ software. […]

[4] = tested on: corneal stromal cell (keratocytes) nuclei; test: Wash bottle study (500-mL bottle, active wash): TUNEL counts and depth of damage (DoD); assay type: cell-based; settings: eyes exposed to 32% sodium hypochlorite, then actively washed 15 min with 500 mL
Method: as §2, §1
A 100-ml beaker or 500-mL emergency eye wash bottle (FIG. 12B) was used to prepare the AA solution and wash the eyes (Lebrun and Nguyen, 2024). These containers hold a ready-to-use eye wash buffer (EWB) solution composed of potassium chloride (CASRN 7447-40-7, 2.7 mM; Fisher Scientific), potassium phosphate monobasic (CASRN 7778-77-0, 1.5 mM; Fisher Scientific), sodium chloride (CASRN 7647-14-5, 137.9 mM; Fisher Scientific), sodium phosphate dibasic (CASRN 7782-85-6, 8.1 mM; Sigma Aldrich), deionized water (ReadyRefresh, Stamford, CT), 1% dextran (CASRN 9004-54-0; Sigma Aldrich), and 1% bovine serum albumin (CASRN 9048-46-8; Sigma Aldrich). Before use, different amounts of powdered AA (CASRN 50-81-7; Sigma Aldrich) are dispersed into the liquid component and rapidly mixed to achieve a predefined concentration (Lebrun et al., 2021c, 2021d, 2021e) to form complete EWB+AA. […] The pH of the liquid portion of the wash solution is adjusted to 7.2 with HCl to ensure that the final wash solution for the 0.2% powdered AA reaches a pH of 6.99±0.5. For the 10% AA condition, the pH was further adjusted to 6.99±0.5 with 1 N NaOH. For the EWB only condition, the pH was adjusted to 6.99±0.5 with 1 N HCl. For the wash step, eyes were either passively soaked in beakers (100-mL conditions) or washed with an eyewash bottle (500-mL conditions) for the indicated times. The eyewash bottle allows for forceful spraying and recycling of the 500-mL solution (Lebrun and Nguyen, 2024). While this bottle can be used in vivo or in vitro, for the in vitro study described here, the eyes were placed cornea-side down in the well at the top of the bottle, and the bottles were compressed so that a jet of solution washed over the eye (see FIG. 12B).
The corneas of whole eyes were exposed to either 100 μL of 32% NaOCl for 1 min or 100 μL deionized sterile water for 1 min (control condition) in a dosing ring. Eyes were then rinsed, and all eyes were washed using 500-mL wash bottles (FIG. 12B). Washing was with sterile tap water (municipal water, Anaheim, CA, 0.22-micron pore size filtered), EWB, or EWB+0.2% AA. After “washing,” eyes were processed following the “postexposure” steps described below.
After washing, eyes were placed in fresh postexposure wells (part of the IVD kit) containing approximately 1.5 mL OM added to the level of the limbus. Eyes were then placed back into a humidified, 5% CO2, 37° C. incubator for 24 h. Corneas were then removed by dissection, placed in 4% paraformaldehyde in phosphate-buffered saline (fixative; Boston BioProducts, Inc., Milford, MA), and stored at 4° C.
After a minimum of 24 h in fixative, corneas were cut in half and infiltrated with 30% sucrose (Capella et al., 1965), and the tissues were then embedded in Tissue-Tek® O.C.T. compound (Sakura Finetek, Torrance, CA), snap frozen in liquid nitrogen, and stored in an ultralow freezer (−80° C., New Brunswick Scientific, Hamburg, Germany). […]

O=C1O[C@H]([C@@H](O)CO)C(O)=C1O [AA, ascorbic acid]
effect on corneal ulceration ([1]; subcutaneous injection of 15% AA solution within 3 h of the burn, once daily): ineffective; also recorded: not effective
effect on corneal ulceration ([1]; topical 10% AA eye drop pH 7.2, 2 h after the burn and hourly for 14 h per day): reduced corneal ulceration

OCl [NaOCl, sodium hypochlorite]
pH [2]: 12.04 and 12
TUNEL positive nuclei count, AVG ± SE (overall average) [3]: 3.1 ± 3.1

Water
Depth of Damage (DoD), AVG ± SE (overall average) [4]: 59.6 ± 3.6%
Depth of Damage (DoD), S. AVG ± SE (section average per eye) [4]: 44.2 ± 2.8% and 68.5 ± 0.5% and 60.9 ± 0.7%
TUNEL positive nuclei count, AVG ± SE (overall average) [4]: 254.9 ± 17.8
TUNEL positive nuclei count, S. AVG ± SE (section average per eye) [4]: 231.0 ± 4.0 and 238.0 ± 2.6 and 287.7 ± 4.1
TUNEL positive nuclei count, AVG ± SE (overall average) ([4]; listed as tap water): 254.9±17.8
Depth of Damage (DoD), AVG ± SE (overall average) ([4]; listed as water): 59.6±3.6%
Depth of Damage (DoD), S. AVG ± SE (section average per eye) ([4]; listed as water): 44.2±2.8% and 68.5±0.5% and 60.9±0.7%
TUNEL positive nuclei count, AVG ± SE (overall average) ([4]; listed as water): 254.9±17.8
TUNEL positive nuclei count, S. AVG ± SE (section average per eye) ([4]; listed as water): 231.0±4.0 and 238.0±2.6 and 287.7±4.1
Depth of Damage (DoD), Section A ([4]; per eye): 47.0% and 68.4% and 62.3%
Depth of Damage (DoD), Section B ([4]; per eye): 41.4% and 69.4% and 59.8%
TUNEL positive nuclei count, Section A ([4]; per eye): 227.0 and 234.0 and 289.0
TUNEL positive nuclei count, Section B ([4]; per eye): 235.0 and 243.0 and 280.0
Depth of Damage (DoD), Section A ([4]; per eye, listed as water): 47.0% and 68.4% and 62.3%
Depth of Damage (DoD), Section B ([4]; per eye, listed as water): 41.4% and 69.4% and 59.8%
Depth of Damage (DoD), Section C ([4]; per eye, listed as water): 67.6% and 60.7%
TUNEL positive nuclei count, Section A ([4]; per eye, listed as water): 227.0 and 234.0 and 289.0
TUNEL positive nuclei count, Section B ([4]; per eye, listed as water): 235.0 and 243.0 and 280.0
TUNEL positive nuclei count, Section C ([4]; per eye, listed as water): 237.0 and 294.0
